# Calls of active or inactive are those of the source. The calls are words filed in the database; no cut-off is given here.
# Experiments:
# A2780 [1] = assay: Induction of apoptosis in human A2780 cells assessed as caspase 9 activity at 24 uM after 12 hrs relative to control; assay type: functional
# A2780 [2] = assay: Cytotoxicity against human A2780 cells after 96 hrs by SRB assay; assay type: functional, cell-based; conditions: A2780, 96 h
# A2780 [3] = assay: Induction of apoptosis in human A2780 cells assessed as caspase 8 activity at 24 uM after 6 hrs relative to control; assay type: functional
# A2780 [4] = assay: Cell cycle arrest in human A2780 cells assessed as accumulation at S phase at 24 uM after 6 hrs by annexin V/propidium iodide staining-based FACS analysis; assay type: functional
# A2780 [5] = assay: Induction of apoptosis in human A2780 cells assessed as caspase 9 activity at 60 uM after 6 hrs relative to control; assay type: functional
# A549 = assay: Cytotoxicity against human A549 cells after 96 hrs by SRB assay; assay type: functional, cell-based; conditions: A549, 96 h
# A2780 [6] = assay: Induction of apoptosis in human A2780 cells assessed as caspase 9 activity at 24 uM after 24 hrs relative to control; assay type: functional
# A2780 [7] = assay: Induction of apoptosis in human A2780 cells assessed as secondary necrotic cells at 24 to 60 uM after 6 to 24 hrs by annexin V/propidium iodide staining-based FACS analysis; assay type: functional, cell-based
# A2780 [8] = assay: Induction of apoptosis in human A2780 cells assessed as cholesterol crystal formation at 24 to 60 uM by acridine orange/propidium iodide staining-based fluorescence microscopy; assay type: functional, cell-based; conditions: TDE = time-dependent effect
# A2780 [9] = assay: Induction of apoptosis in human A2780 cells assessed as caspase 8 activity at 24 uM after 12 hrs relative to control; assay type: functional
# A2780 [10] = assay: Induction of apoptosis in human A2780 cells assessed as caspase 3 activity at 24 uM after 24 hrs relative to control; assay type: functional
# A2780 [11] = assay: Induction of apoptosis in human A2780 cells assessed as caspase 8 activity at 60 uM after 12 hrs relative to control; assay type: functional
# A2780 [12] = assay: Induction of apoptosis in human A2780 cells assessed as caspase 9 activity at 24 uM after 6 hrs relative to control; assay type: functional
# A2780 [13] = assay: Induction of apoptosis in human A2780 cells assessed as caspase 3 activity at 60 uM after 6 hrs relative to control; assay type: functional
# A2780 [14] = assay: Induction of apoptosis in human A2780 cells assessed as caspase 3 activity at 60 uM after 24 hrs relative to control; assay type: functional
# A2780 [15] = assay: Induction of apoptosis in human A2780 cells assessed as caspase 9 activity at 60 uM after 12 hrs relative to control; assay type: functional
# A2780 [16] = assay: Induction of apoptosis in human A2780 cells assessed as caspase 9 activity at 60 uM after 24 hrs relative to control; assay type: functional
# MCF7 = assay: Cytotoxicity against human MCF7 cells after 96 hrs by SRB assay; assay type: functional, cell-based; conditions: MCF7, 96 h
# A2780 [17] = assay: Induction of apoptosis in human A2780 cells assessed as caspase 3 activity at 24 uM after 6 hrs relative to control; assay type: functional
# A2780 [18] = assay: Induction of apoptosis in human A2780 cells assessed as caspase 8 activity at 24 uM after 24 hrs relative to control; assay type: functional
# A2780 [19] = assay: Induction of apoptosis in human A2780 cells assessed as phosphatidylserine externalization at 60 uM after 6 hrs by annexin V/propidium iodide staining-based FACS analysis; assay type: functional
# A2780 [20] = assay: Induction of apoptosis in human A2780 cells assessed as cell shrinkage at 24 to 60 uM after 24 hrs by acridine orange/propidium iodide staining-based fluorescence microscopy; assay type: functional
# A2780 [21] = assay: Induction of apoptosis in human A2780 cells assessed as DNA fragmentation at 0.024 to 0.060 mM after 6 to 24 hrs by agarose gel electrophoresis; assay type: functional, cell-based
# [22] = Cytotoxicity against human 518A2 cells after 96 hrs by SRB assay; assay type: functional, cell-based; conditions: 518A2, 96 h
# NIH3T3 = assay: Cytotoxicity against mouse NIH/3T3 cells after 96 hrs by SRB assay; assay type: cell-based; conditions: NIH3T3, 96 h
# A2780 [23] = assay: Induction of apoptosis in human A2780 cells assessed as caspase 3 activity at 60 uM after 12 hrs relative to control; assay type: functional
# A2780 [24] = assay: Cell cycle arrest in human A2780 cells assessed as early detachment of cells at 24 to 60 uM after 24 hrs by annexin V/propidium iodide staining-based FACS analysis; assay type: functional
# [25] = Solubility of the compound in buffer at 10 uM after 90 mins by HPLC analysis; assay type: physicochemical
# A2780 [26] = assay: Induction of apoptosis in human A2780 cells assessed as caspase 3 activity at 24 uM after 12 hrs relative to control; assay type: functional
# 8505C = assay: Cytotoxicity against human 8505C cells after 96 hrs by SRB assay; assay type: functional, cell-based
# A2780 [27] = assay: Induction of apoptosis in human A2780 cells assessed as caspase 8 activity at 60 uM after 24 hrs relative to control; assay type: functional
# A2780 [28] = assay: Induction of apoptosis in human A2780 cells at 2 to 6 times IC50 after 6 to 24 hrs by acridine orange/propidium iodide staining-based fluorescence microscopy; assay type: functional, cell-based
# A2780 [29] = assay: Cell cycle arrest in human A2780 cells assessed as accumulation at G1/G0 phase at 12 uM after 12 hrs by annexin V/propidium iodide staining-based FACS analysis; assay type: functional
# A2780 [30] = assay: Induction of apoptosis in human A2780 cells assessed as chromatin condensation at 24 to 60 uM after 24 hrs by acridine orange/propidium iodide staining-based fluorescence microscopy; assay type: functional, cell-based
# A2780 [31] = assay: Induction of apoptosis in human A2780 cells assessed as cholesterol crystal formation after 24 hrs by acridine orange/propidium iodide staining-based fluorescence microscopy; assay type: functional, cell-based
# HT-29 = assay: Cytotoxicity against human HT-29 cells after 96 hrs by SRB assay; assay type: functional, cell-based; conditions: HT-29, 96 h
# A2780 [32] = assay: Induction of apoptosis in human A2780 cells assessed as caspase 8 activity at 60 uM after 6 hrs relative to control; assay type: functional
# A2780 [33] = assay: Induction of apoptosis in human A2780 cells assessed as chromatin condensation at 1 uM after 24 hrs by acridine orange/propidium iodide staining-based fluorescence microscopy; assay type: functional, cell-based
# A2780 [34] = assay: Induction of apoptosis in human A2780 cells assessed as caspase 3 activity at 1 uM after 12 hrs relative to control; assay type: functional
# A2780 [35] = assay: Induction of apoptosis in human A2780 cells assessed as cell shrinkage at 1 uM after 24 hrs by acridine orange/propidium iodide staining-based fluorescence microscopy; assay type: functional
# A2780 [36] = assay: Induction of apoptosis in human A2780 cells assessed as caspase 9 activity at 1 uM after 6 hrs relative to control; assay type: functional
# A2780 [37] = assay: Induction of apoptosis in human A2780 cells assessed as caspase 3 activity at 1 uM after 24 hrs relative to control; assay type: functional
# A2780 [38] = assay: Induction of apoptosis in human A2780 cells assessed as caspase 9 activity at 1 uM after 24 hrs relative to control; assay type: functional
# A2780 [39] = assay: Induction of apoptosis in human A2780 cells assessed as caspase 8 activity at 1 uM after 12 hrs relative to control; assay type: functional
# A2780 [40] = assay: Induction of apoptosis in human A2780 cells assessed as cholesterol crystal formation at 1 uM by acridine orange/propidium iodide staining-based fluorescence microscopy; assay type: functional, cell-based; conditions: TDE = time-dependent effect
# A2780 [41] = assay: Induction of apoptosis in human A2780 cells assessed as caspase 9 activity at 1 uM after 12 hrs relative to control; assay type: functional
# A2780 [42] = assay: Induction of apoptosis in human A2780 cells assessed as caspase 8 activity at 1 uM after 6 hrs relative to control; assay type: functional
# A2780 [43] = assay: Induction of apoptosis in human A2780 cells assessed as caspase 3 activity at 1 uM after 6 hrs relative to control; assay type: functional
# A2780 [44] = assay: Induction of apoptosis in human A2780 cells assessed as caspase 8 activity at 1 uM after 24 hrs relative to control; assay type: functional
smiles,measurement,setting,value
CC1(C)CC[C@]2(C(=O)OCCCOc3ccccc3)CC[C@]3(C)C(=CC[C@@H]4[C@@]5(C)C[C@@H](O)[C@H](O)C(C)(C)[C@@H]5CC[C@]43C)[C@@H]2C1,Activity,A2780 [1],-2%
same,IC50,A2780 [2],10.6 µM
same,Activity,A2780 [3],2%
same,Activity,A2780 [4],Active
same,Activity,A2780 [5],3%
same,IC50,A549,13.7 µM
same,Activity,A2780 [6],6%
same,Activity,A2780 [7],Active
same,Activity,A2780 [8],tde
same,Activity,A2780 [9],1%
same,Activity,A2780 [10],25%
same,Activity,A2780 [11],44%
same,Activity,A2780 [12],0%
same,Activity,A2780 [13],29%
same,Activity,A2780 [14],31%
same,Activity,A2780 [15],2%
same,Activity,A2780 [16],21%
same,IC50,MCF7,13.6 µM
same,Activity,A2780 [17],2%
same,Activity,A2780 [18],27%
same,Activity,A2780 [19],80%
same,Activity,A2780 [20],Active
same,Activity,A2780 [21],Active
same,IC50,[22],12.6 µM
same,IC50,NIH3T3,12.7 µM
same,Activity,A2780 [23],37%
same,Activity,A2780 [24],Active
same,"solubility at 1.5 h, 10 µM",[25],110 µM
same,Activity,A2780 [26],1%
same,IC50,8505C,13.3 µM
same,Activity,A2780 [27],39%
same,Activity,A2780 [28],Active
same,Activity,A2780 [29],Active
same,Activity,A2780 [30],Active
same,Activity,A2780 [31],Dose-dependent effect
same,IC50,HT-29,12.5 µM
same,Activity,A2780 [32],25%
CC1(C)CC[C@]2(C(=O)O)CC[C@]3(C)C(=CC[C@@H]4[C@@]5(C)C[C@@H](O)[C@H](O)C(C)(C)[C@@H]5CC[C@]43C)[C@@H]2C1 [MASLINIC ACID],IC50,NIH3T3,21.1 µM
CN[C@@H]1C[C@H]2O[C@@](C)([C@@H]1OC)n1c3ccccc3c3c4c(c5c6ccccc6n2c5c31)C(=O)NC4 [STAUROSPORINE],Activity,A2780 [33],Active
same,Activity,A2780 [34],52%
same,Activity,A2780 [35],Active
same,Activity,A2780 [36],38%
same,Activity,A2780 [37],57%
same,Activity,A2780 [38],33%
same,Activity,A2780 [39],52%
same,Activity,A2780 [40],tde
same,Activity,A2780 [41],3%
same,Activity,A2780 [42],51%
same,Activity,A2780 [31],Dose-dependent effect
same,Activity,A2780 [43],68%
same,Activity,A2780 [44],79%
